Data as given in US20260232666A1, “COMPOSITIONS AND METHODS FOR INHIBITION OF RAS” (TheRas, Inc., priority 2023, published 2026).

The molecules below were run against T1, GDP-loaded KRAS4b (amino acids 1-169) G12C/C118S protein (Homo sapiens, UniProt P01116, C118S/G12C) (assay: Covalent cysteine 12 modification by MALDI-TOF MS, GDP-loaded KRAS G12C). Conditions: 15 minutes reaction time point.
T1 construct: KRAS4b (amino acids 1-169) G12C/C118S protein; made in house
Assay type: binding
In short: (§1)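 1 μM GppNHp-, GTP- or GDP-loaded KRAS4b (1-169) G12C/C118S in 20 mM HEPES, 150 mM NaCl, 1 mM MgCl2, pH 7.3, at 1:2.5 protein:compound, room temperature in the dark. Percent Cys12 modification from MALDI-TOF peak heights (adduct/total protein), reported at 15 min.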

Row | Structure (SMILES) | GDP-KRAS G12C percent of modification
1 | C=CC(=O)N1C[C@H](N(C)c2nc(OC[C@@H]3CCCN3C)nc3c(F)c(-c4ccc(F)c5sc(N)c(C#N)c45)c(C(F)(F)F)cc23)C[C@@H]1C [Compound 153] | A (percent of modification ≥70%)
2 | C=CC(=O)N1CC[C@@H](N(CC)c2nc(OC[C@@H]3CCCN3C)nc3c(F)c(-c4nc(N)cc(C)c4C(F)(F)F)c(C(F)(F)F)cc23)[C@H]1C [Compound 155] | C (10%≤percent of modification <50%)
3 | C=CC(=O)N1CC[C@@H](N(C)c2nc(OC[C@]34CCCN3C[C@H](OC)C4)nc3c(F)c(-c4ccc(F)c5sc(N)c(C#N)c45)c(C(F)(F)F)cc23)[C@H]1C [Compound 156] | A (percent of modification ≥70%)
4 | C=CC(=O)N1CC[C@@H](N(CC)c2nc(OC[C@]34CCCN3C[C@H](OC)C4)nc3c(F)c(-c4ccc(F)c5sc(N)c(C#N)c45)c(C(F)(F)F)cc23)[C@H]1C [Compound 158] | A (percent of modification ≥70%)
5 | C=CC(=O)N1CC[C@@H](N(CC)c2nc(OC[C@]34CCCN3C[C@H](F)C4)nc3c(F)c(-c4ccc(F)c5sc(N)c(C#N)c45)c(C(F)(F)F)cc23)[C@H]1C [Compound 159] | A (percent of modification ≥70%)
6 | C=CC(=O)N1CC[C@@H](N(C)c2nc(OC[C@]34CCCN3C[C@H](OC)C4)nc3c(F)c(-c4ccc(F)c5sc(N)c(C#N)c45)c(Cl)cc23)[C@H]1C [Compound 161] | A (percent of modification ≥70%)
7 | C=CC(=O)N1CC[C@@H](N(CC)c2nc(OC[C@@]34CCCN3C[C@H](OC)C4)nc3c(F)c(-c4ccc(F)c5sc(N)c(C#N)c45)c(Cl)cc23)[C@H]1C [Compound 163] | A (percent of modification ≥70%)
8 | C=CC(=O)N1CC[C@@H](N(CC)c2nc(OC[C@]34CCCN3C[C@H](OC)C4)nc3c(F)c(-c4ccc(F)c5sc(N)c(C#N)c45)c(Cl)cc23)[C@H]1C [Compound 164] | A (percent of modification ≥70%)
9 | C=CC(=O)N1CC[C@@H](N(CC)c2nc(OC[C@]34CCCN3C[C@H](F)C4)nc3c(F)c(-c4ccc(F)c5sc(N)c(C#N)c45)c(Cl)cc23)[C@H]1C [Compound 165] | A (percent of modification ≥70%)
10 | C=CC(=O)N1CC[C@@H](N(CC)c2nc(OC[C@]34CCCN3C[C@H](F)C4)nc3cc(-c4ccc(F)c5sc(N)c(C#N)c45)c(F)cc23)[C@H]1C [Compound 167] | A (percent of modification ≥70%)
11 | C=CC(=O)N1CC[C@@H](N(CC)c2nc(OC[C@]34CCCN3C[C@H](OC)C4)nc3c(F)c(-c4ccc(F)c5sc(N)c(C#N)c45)ccc23)[C@H]1C [Compound 169] | A (percent of modification ≥70%)

What follows are molecules tested against T2, Avi-KRAS G12C (1-169) GppNHp/RAF1 RBD-3×FLAG (52-151) (Homo sapiens, UniProt P01116, G12C) (assay: Raf1 RBD-KRAS G12C-GppNHp disruption assay (protein:protein interaction HTRF)). Conditions: not given.
T2 construct: Avi-KRAS G12C (1-169) GppNHp; Avi (N)
Assay type: biochemical
In short: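 HTRF measuring RAF1 RBD binding to GppNHp-loaded KRAS G12C (50 nM) in Tris pH 7.5, 100 mM NaCl, 5 mM MgCl2, 10% DMSO. Compound, KRAS, RBD and detection reagents each added sequentially with 1 h room-temperature incubations; 10-point titration; excitation 320 nm, emission 615 nm; activity as % of DMSO; IC50 derived.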

Row | Structure (SMILES) | IC50 [nM]
12 | C=CC(=O)N1C[C@H](N(C)c2nc(OC[C@@H]3CCCN3C)nc3c(F)c(-c4ccc(F)c5sc(N)c(C#N)c45)c(C(F)(F)F)cc23)C[C@@H]1C [Compound 153] | < 500
13 | C=CC(=O)N1CC[C@@H](N(CC)c2nc(OC[C@@H]3CCCN3C)nc3c(F)c(-c4nc(N)cc(C)c4C(F)(F)F)c(C(F)(F)F)cc23)[C@H]1C [Compound 155] | < 500
14 | C=CC(=O)N1CC[C@@H](N(C)c2nc(OC[C@]34CCCN3C[C@H](OC)C4)nc3c(F)c(-c4ccc(F)c5sc(N)c(C#N)c45)c(C(F)(F)F)cc23)[C@H]1C [Compound 156] | < 500
15 | C=CC(=O)N1CC[C@@H](N(CC)c2nc(OC[C@]34CCCN3C[C@H](OC)C4)nc3c(F)c(-c4ccc(F)c5sc(N)c(C#N)c45)c(C(F)(F)F)cc23)[C@H]1C [Compound 158] | < 500
16 | C=CC(=O)N1CC[C@@H](N(CC)c2nc(OC[C@]34CCCN3C[C@H](F)C4)nc3c(F)c(-c4ccc(F)c5sc(N)c(C#N)c45)c(C(F)(F)F)cc23)[C@H]1C [Compound 159] | < 500
17 | C=CC(=O)N1CC[C@@H](N(C)c2nc(OC[C@]34CCCN3C[C@H](OC)C4)nc3c(F)c(-c4ccc(F)c5sc(N)c(C#N)c45)c(Cl)cc23)[C@H]1C [Compound 161] | < 500
18 | C=CC(=O)N1CC[C@@H](N(CC)c2nc(OC[C@@]34CCCN3C[C@H](OC)C4)nc3c(F)c(-c4ccc(F)c5sc(N)c(C#N)c45)c(Cl)cc23)[C@H]1C [Compound 163] | < 500
19 | C=CC(=O)N1CC[C@@H](N(CC)c2nc(OC[C@]34CCCN3C[C@H](OC)C4)nc3c(F)c(-c4ccc(F)c5sc(N)c(C#N)c45)c(Cl)cc23)[C@H]1C [Compound 164] | < 500
20 | C=CC(=O)N1CC[C@@H](N(CC)c2nc(OC[C@]34CCCN3C[C@H](F)C4)nc3c(F)c(-c4ccc(F)c5sc(N)c(C#N)c45)c(Cl)cc23)[C@H]1C [Compound 165] | < 500
21 | C=CC(=O)N1CC[C@@H](N(CC)c2nc(OC[C@]34CCCN3C[C@H](F)C4)nc3cc(-c4ccc(F)c5sc(N)c(C#N)c45)c(F)cc23)[C@H]1C [Compound 167] | < 500
22 | C=CC(=O)N1CC[C@@H](N(CC)c2nc(OC[C@]34CCCN3C[C@H](OC)C4)nc3c(F)c(-c4ccc(F)c5sc(N)c(C#N)c45)ccc23)[C@H]1C [Compound 169] | < 500

What follows are molecules tested against T3, GTP-loaded KRAS4b (amino acids 1-169) G12C/C118S protein (Homo sapiens, UniProt P01116, C118S/G12C) (assay: Covalent cysteine 12 modification by MALDI-TOF MS, GTP-loaded KRAS G12C). Conditions: 15 minutes reaction time point.
T3 construct: KRAS4b (amino acids 1-169) G12C/C118S protein; made in house
Assay type: binding
In short: as §1

Row | Structure (SMILES) | GTP-KRAS G12C percent of modification
23 | C=CC(=O)N1C[C@H](N(C)c2nc(OC[C@@H]3CCCN3C)nc3c(F)c(-c4ccc(F)c5sc(N)c(C#N)c45)c(C(F)(F)F)cc23)C[C@@H]1C [Compound 153] | A (percent of modification ≥70%)
24 | C=CC(=O)N1CC[C@@H](N(CC)c2nc(OC[C@@H]3CCCN3C)nc3c(F)c(-c4nc(N)cc(C)c4C(F)(F)F)c(C(F)(F)F)cc23)[C@H]1C [Compound 155] | C (10%≤percent of modification <50%)
25 | C=CC(=O)N1CC[C@@H](N(C)c2nc(OC[C@]34CCCN3C[C@H](OC)C4)nc3c(F)c(-c4ccc(F)c5sc(N)c(C#N)c45)c(C(F)(F)F)cc23)[C@H]1C [Compound 156] | A (percent of modification ≥70%)
26 | C=CC(=O)N1CC[C@@H](N(CC)c2nc(OC[C@]34CCCN3C[C@H](OC)C4)nc3c(F)c(-c4ccc(F)c5sc(N)c(C#N)c45)c(C(F)(F)F)cc23)[C@H]1C [Compound 158] | B (50≤percent of modification <70%)
27 | C=CC(=O)N1CC[C@@H](N(CC)c2nc(OC[C@]34CCCN3C[C@H](F)C4)nc3c(F)c(-c4ccc(F)c5sc(N)c(C#N)c45)c(C(F)(F)F)cc23)[C@H]1C [Compound 159] | B (50≤percent of modification <70%)
28 | C=CC(=O)N1CC[C@@H](N(C)c2nc(OC[C@]34CCCN3C[C@H](OC)C4)nc3c(F)c(-c4ccc(F)c5sc(N)c(C#N)c45)c(Cl)cc23)[C@H]1C [Compound 161] | A (percent of modification ≥70%)
29 | C=CC(=O)N1CC[C@@H](N(CC)c2nc(OC[C@@]34CCCN3C[C@H](OC)C4)nc3c(F)c(-c4ccc(F)c5sc(N)c(C#N)c45)c(Cl)cc23)[C@H]1C [Compound 163] | A (percent of modification ≥70%)
30 | C=CC(=O)N1CC[C@@H](N(CC)c2nc(OC[C@]34CCCN3C[C@H](OC)C4)nc3c(F)c(-c4ccc(F)c5sc(N)c(C#N)c45)c(Cl)cc23)[C@H]1C [Compound 164] | A (percent of modification ≥70%)
31 | C=CC(=O)N1CC[C@@H](N(CC)c2nc(OC[C@]34CCCN3C[C@H](F)C4)nc3c(F)c(-c4ccc(F)c5sc(N)c(C#N)c45)c(Cl)cc23)[C@H]1C [Compound 165] | A (percent of modification ≥70%)
32 | C=CC(=O)N1CC[C@@H](N(CC)c2nc(OC[C@]34CCCN3C[C@H](F)C4)nc3cc(-c4ccc(F)c5sc(N)c(C#N)c45)c(F)cc23)[C@H]1C [Compound 167] | A (percent of modification ≥70%)
33 | C=CC(=O)N1CC[C@@H](N(CC)c2nc(OC[C@]34CCCN3C[C@H](OC)C4)nc3c(F)c(-c4ccc(F)c5sc(N)c(C#N)c45)ccc23)[C@H]1C [Compound 169] | A (percent of modification ≥70%)
